Drawing on patent publication US12006321B2, “Substituted pyrazolo[1,5-a]pyrimidines as apelin receptor agonists” (Sanford Burnham Prebys Medical Discovery Institute, priority 2017, dated 2024), this text covers EC50 for 34 compounds.

This test addresses T1, human apelin receptor (APJ, APLNR) (Homo sapiens, UniProt P35414).
T1 construct: host or cells: Chinese hamster ovary (CHO) cells, stably integrated receptor
T1 sequence (P35414 1-380): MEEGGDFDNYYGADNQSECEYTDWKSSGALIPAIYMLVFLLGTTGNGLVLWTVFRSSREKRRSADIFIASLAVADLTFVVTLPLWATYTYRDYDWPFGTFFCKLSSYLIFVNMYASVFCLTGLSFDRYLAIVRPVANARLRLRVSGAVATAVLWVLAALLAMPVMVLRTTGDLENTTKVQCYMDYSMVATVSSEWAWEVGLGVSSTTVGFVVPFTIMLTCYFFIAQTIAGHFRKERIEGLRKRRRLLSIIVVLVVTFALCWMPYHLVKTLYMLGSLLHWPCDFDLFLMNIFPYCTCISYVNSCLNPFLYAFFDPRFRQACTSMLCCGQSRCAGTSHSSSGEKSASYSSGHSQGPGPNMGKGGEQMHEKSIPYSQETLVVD
The test is described as follows: cell-based cAMP assay (TR-FRET) in Chinese hamster ovary cells expressing the apelin receptor. The following applies: EC50 = 50% of control (apelin-13, 1 nM) response; cAMP in CHO cells, 0.5 h incubation; read-out: Potency Category. In a few lines: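 CHO cells stably expressing human APJ were forskolin-stimulated, then exposed to compound (0.0-100 μM, ≤1% DMSO) for 0.5 h. Lysate cAMP read by competitive TR-FRET immunoassay; EC50 and efficacy expressed relative to 1 nM apelin-13, four-parameter fit over ≥10 concentrations.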
(In general: Cyclic AMP is a second messenger, typically raised through Gs and lowered through Gi signalling.)
Consider `CCOC(=O)c1cc(C(C)C)n2nc(C)c(-c3ccc(C)cc3C)c2n1` [Compound 44, ethyl 3-(2,4-dimethylphenyl)-2-methyl-7-(methylethyl)-8-hydropyrazolo[1,5-a]pyrimidine-5-carboxylate], for which the EC50 was greater than 500 nM.

Regarding `Cc1cccc(C)c1-c1c(CO)nn2c(C(C)C)cc(C(=O)O)nc12` [Compound 87, 3-(2,6-dimethylphenyl)-2-(hydroxymethyl)-7-(methylethyl)-8-hydropyrazolo[1,5-a]pyrimidine-5-carboxylic acid], the EC50 is greater than 500 nM.

Turning to `CCOC(=O)c1cc(Oc2ccccc2)n2nc(C)c(-c3c(C)cccc3C)c2n1` [Compound 109, ethyl 3-(2,6-dimethylphenyl)-2-methyl-7-phenoxy-8-hydropyrazolo[1,5-a]pyrimidine-5-carboxylate], the EC50 was greater than 500 nM.

`Cc1nn2c(C(C)C)cc(C(=O)O)nc2c1-c1cccc(Cl)c1` [Compound 32, 3-(3-chlorophenyl)-2-methyl-7-(methylethyl)-8-hydropyrazolo[1,5-a]pyrimidine-5-carboxylic acid]: the EC50 is greater than 500 nM.

Regarding `CCCc1cc(C(=O)OCC)nc2c(-c3ccccc3)c(C)nn12` [Compound 35, ethyl 2-methyl-3-phenyl-7-propyl-8-hydropyrazolo[1,5-a]pyrimidine-5-carboxylate], the EC50 is greater than 500 nM.

For the compound `CCOC(=O)c1cc(C(C)C)n2nc(C)c(-c3c(C)cccc3C)c2n1` [Compound 39, ethyl 3-(2,6-dimethylphenyl)-2-methyl-7-(methylethyl)-8-hydropyrazolo[1,5-a]pyrimidine-5-carboxylate], the EC50 is greater than 500 nM.

In the case of `COc1ccc(Nc2cc(C(=O)O)nc3c(-c4c(C)cccc4C)c(C)nn23)cc1` [Compound 142, 3-(2,6-dimethylphenyl)-7-[(4-methoxyphenyl)amino]-2-methyl-8-hydropyrazolo[1,5-a]pyrimidine-5-carboxylic acid], the EC50 is greater than 500 nM.

As to `CCOC(=O)c1cc(C(C)C)n2nc(C(C)C)c(-c3c(C)cccc3C)c2n1` [Compound 73, ethyl 2,7-bis(methylethyl)-3-(2,6-dimethylphenyl)-8-hydropyrazolo[1,5-a]pyrimidine-5-carboxylate], the EC50 is greater than 500 nM.

Take `Cc1cccc(C)c1-c1c(C)nn2c(-c3ccccc3)cc(C(=O)O)nc12` [Compound 83, 3-(2,6-dimethylphenyl)-2-methyl-7-phenyl-8-hydropyrazolo[1,5-a]pyrimidine-5-carboxylic acid]: the EC50 was greater than 500 nM.

For the compound `CCOC(=O)c1cc(C(C)C)n2nc(CO)c(-c3c(C)cccc3C)c2n1` [Compound 86, ethyl 3-(2,6-dimethylphenyl)-2-(hydroxymethyl)-7-(methylethyl)-8-hydropyrazolo[1,5-a]pyrimidine-5-carboxylate], the EC50 was greater than 500 nM.

For the compound `CCOC(=O)c1cc(C(C)C)n2nc(C)c(-c3c(C)cccc3Br)c2n1` [Compound 129, ethyl 3-(2-bromo-6-methylphenyl)-2-methyl-7-(methylethyl)-8-hydropyrazolo[1,5-a]pyrimidine-5-carboxylate], the EC50 was greater than 500 nM.

With `Cc1cccc(C)c1-c1c(C)nn2c(N3CCCCC3)cc(C(=O)O)nc12` [Compound 125, 3-(2,6-dimethylphenyl)-2-methyl-7-piperidyl-8-hydropyrazolo[1,5-a]pyrimidine-5-carboxylic acid], the EC50 is greater than 500 nM.

Take `Cc1cccc(C)c1-c1c(C)nn2c(Nc3ccc(Cl)cc3)cc(C(=O)O)nc12` [Compound 140, 3-(2,6-dimethylphenyl)-7-[(4-chlorophenyl)amino]-2-methyl-8-hydropyrazolo[1,5-a]pyrimidine-5-carboxylic acid]: the EC50 was greater than 500 nM.

As for `Cc1cccc(C)c1-c1c(C)nn2c(N(C)c3ccc(F)cc3)cc(C(=O)O)nc12` [Compound 151, 3-(2,6-dimethylphenyl)-7-[(4-fluorophenyl)methylamino]-2-methyl-8-hydropyrazolo[1,5-a]pyrimidine-5-carboxylic acid], the EC50 is greater than 500 nM.

As for `COC(=O)c1cc(Nc2ccc(F)cc2)n2nc(C)c(-c3c(C)cccc3C)c2n1` [Compound 132, methyl 3-(2,6-dimethylphenyl)-7-[(4-fluorophenyl)amino]-2-methyl-8-hydropyrazolo[1,5-a]pyrimidine-5-carboxylate], the EC50 is greater than 500 nM.

For the compound `Cc1cccc(C)c1-c1c(C(=O)N(C)C)nn2c(C(C)C)cc(C(=O)O)nc12` [Compound 101, 2-(N,N-dimethylcarbamoyl)-3-(2,6-dimethylphenyl)-7-(methylethyl)-8-hydropyrazolo[1,5-a]pyrimidine-5-carboxylic acid], the EC50 is greater than 500 nM.

As for `COc1ccccc1-c1c(C)nn2c(C(C)C)cc(C(=O)O)nc12` [Compound 31, 3-(2-methoxyphenyl)-2-methyl-7-(methylethyl)-8-hydropyrazolo[1,5-a]pyrimidine-5-carboxylic acid], the EC50 is greater than 500 nM.

Take `CCOC(=O)c1cc(C(C)C)n2nc(C)c(-c3cccc(Cl)c3)c2n1` [Compound 30, ethyl 3-(3-chlorophenyl)-2-methyl-7-(methylethyl)-8-hydropyrazolo[1,5-a]pyrimidine-5-carboxylate]: the EC50 was greater than 500 nM.

As for `Cc1cccc(C)c1-c1c(C)nn2c(C3CC3)cc(C(=O)O)nc12` [Compound 71, 3-(2,6-dimethylphenyl)-7-cyclopropyl-2-methyl-8-hydropyrazolo[1,5-a]pyrimidine-5-carboxylic acid], the EC50 is 200 to 500 nM.

`CC(=O)Nc1cc(C(C)C)n2nc(C)c(-c3c(C)cccc3C)c2n1` [Compound 111, N-[3-(2,6-dimethylphenyl)-2-methyl-7-(methylethyl)-8-hydropyrazolo[1,5-a]pyrimidin-5-yl]acetamide]: the EC50 was greater than 500 nM.

In the case of `CCCc1cc(C(=O)O)nc2c(-c3c(C)cccc3C)c(C)nn12` [Compound 55, 3-(2,6-dimethylphenyl)-2-methyl-7-propyl-8-hydropyrazolo[1,5-a]pyrimidine-5-carboxylic acid], the EC50 is greater than 500 nM.

With `CCCc1c(C)c(C(=O)OCC)nc2c(-c3c(C)cccc3C)c(C)nn12` [Compound 54], the EC50 was greater than 500 nM.

In the case of `Cc1cccc(C)c1-c1c(C)nn2c(Nc3ccc(C(F)(F)F)cc3)cc(C(=O)O)nc12` [Compound 143, 3-(2,6-dimethylphenyl)-2-methyl-7-{[4-(trifluoromethyl)phenyl]amino}-8-hydropyrazolo[1,5-a]pyrimidine-5-carboxylic acid], the EC50 is greater than 500 nM.

With `CCOC(=O)c1cc(C(C)C)n2nc(C)c(-c3c(C)cccc3Cl)c2n1` [Compound 94, ethyl 3-(6-chloro-2-methylphenyl)-2-methyl-7-(methylethyl)-8-hydropyrazolo[1,5-a]pyrimidine-5-carboxylate], the EC50 was greater than 500 nM.

For the compound `CCOC(=O)c1cc(C(C)C)n2nc(C)c(-c3c(OC)cccc3OC)c2n1` [Compound 40, ethyl 3-(2,6-dimethoxyphenyl)-2-methyl-7-(methylethyl)-8-hydropyrazolo[1,5-a]pyrimidine-5-carboxylate], the EC50 is greater than 500 nM.

As to `Cc1ccc(-c2c(C)nn3c(C(C)C)cc(C(=O)O)nc23)cc1` [Compound 5, 2-methyl-7-(methylethyl)-3-(4-methylphenyl)-8-hydropyrazolo[1,5-a]pyrimidine-5-carboxylic acid], the EC50 is greater than 500 nM.

In the case of `CCOC(=O)c1cc(C(C)C)n2nc(C)c(-c3c(C)cc(OC)cc3C)c2n1` [Compound 46, ethyl 3-(4-methoxy-2,6-dimethylphenyl)-2-methyl-7-(methylethyl)-8-hydropyrazolo[1,5-a]pyrimidine-5-carboxylate], the EC50 was greater than 500 nM.

As for `COc1cccc(C)c1-c1c(C)nn2c(C(C)C)cc(C(=O)O)nc12` [Compound 76, 3-(2-methoxy-6-methylphenyl)-2-methyl-7-(methylethyl)-8-hydropyrazolo[1,5-a]pyrimidine-5-carboxylic acid], the EC50 was greater than 500 nM.

As for `Cc1nn2c(C(C)C)cc(C(=O)O)nc2c1-c1cccc(F)c1` [Compound 26, 3-(3-fluorophenyl)-2-methyl-7-(methylethyl)-8-hydropyrazolo[1,5-a]pyrimidine-5-carboxylic acid], the EC50 is greater than 500 nM.

For the compound `COC(=O)c1cc(N(C)c2ccccc2)n2nc(C)c(-c3c(C)cccc3C)c2n1` [Compound 146, methyl 3-(2,6-dimethylphenyl)-2-methyl-7-(methylphenylamino)-8-hydropyrazolo[1,5-a]pyrimidine-5-carboxylate], the EC50 is greater than 500 nM.

Take `COCc1nn2c(C(C)C)cc(C(=O)O)nc2c1-c1c(C)cccc1C` [Compound 89, 3-(2,6-dimethylphenyl)-2-(methoxymethyl)-7-(methylethyl)-8-hydropyrazolo[1,5-a]pyrimidine-5-carboxylic acid]: the EC50 was greater than 500 nM.

For `CCOC(=O)c1cc(C(C)C)n2nc(-c3ccccc3)c(-c3c(C)cccc3C)c2n1` [Compound 78, ethyl 3-(2,6-dimethylphenyl)-7-(methylethyl)-2-phenyl-8-hydropyrazolo[1,5-a]pyrimidine-5-carboxylate], the EC50 is greater than 500 nM.

`Cc1nn2c(C3CC3)cc(C(=O)O)nc2c1-c1ccccc1` [Compound 6, 7-cyclopropyl-2-methyl-3-phenyl-8-hydropyrazolo[1,5-a]pyrimidine-5-carboxylic acid]: the EC50 was greater than 500 nM.

`CCc1cccc(CC)c1-c1c(C)nn2c(C(C)C)cc(C(=O)O)nc12` [Compound 116]: the EC50 is 200 to 500 nM.
